The source of these data is US20080242681A1, “N-4-(6-(Hetero)Aryl-Pyrimidin-4-Ylaminophenyl)-Benzenesulfonamides as Kinase Inhibitors” (Altana Pharma AG, priority 2004, published 2008).

Molecules are shown by their SMILES. Where a name gives a salt, the structure may show the parent alone. A value given as a limit tells only on which side of the number the result lay.

As a reminder, the IC50 is the concentration at which inhibition is half-maximal.

T5 sequence (Q04759 whole entry): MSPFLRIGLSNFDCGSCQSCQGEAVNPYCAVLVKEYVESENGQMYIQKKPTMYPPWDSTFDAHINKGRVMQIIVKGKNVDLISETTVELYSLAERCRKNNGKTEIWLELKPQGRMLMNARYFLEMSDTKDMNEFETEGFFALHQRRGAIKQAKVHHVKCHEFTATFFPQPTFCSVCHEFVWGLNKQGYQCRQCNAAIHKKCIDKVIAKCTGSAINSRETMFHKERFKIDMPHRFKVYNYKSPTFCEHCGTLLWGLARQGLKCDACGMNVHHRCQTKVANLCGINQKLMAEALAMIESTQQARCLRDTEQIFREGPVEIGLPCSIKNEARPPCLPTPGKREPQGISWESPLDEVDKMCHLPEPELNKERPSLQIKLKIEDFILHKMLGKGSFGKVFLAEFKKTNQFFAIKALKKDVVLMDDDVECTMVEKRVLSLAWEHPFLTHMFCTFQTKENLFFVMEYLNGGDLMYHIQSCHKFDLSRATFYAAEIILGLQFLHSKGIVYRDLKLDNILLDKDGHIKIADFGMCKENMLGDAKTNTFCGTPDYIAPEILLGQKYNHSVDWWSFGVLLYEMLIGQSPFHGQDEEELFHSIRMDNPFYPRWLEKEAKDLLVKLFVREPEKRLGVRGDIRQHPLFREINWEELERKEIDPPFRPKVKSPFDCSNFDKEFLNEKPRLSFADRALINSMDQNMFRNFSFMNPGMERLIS
T2 sequence (P05771 whole entry): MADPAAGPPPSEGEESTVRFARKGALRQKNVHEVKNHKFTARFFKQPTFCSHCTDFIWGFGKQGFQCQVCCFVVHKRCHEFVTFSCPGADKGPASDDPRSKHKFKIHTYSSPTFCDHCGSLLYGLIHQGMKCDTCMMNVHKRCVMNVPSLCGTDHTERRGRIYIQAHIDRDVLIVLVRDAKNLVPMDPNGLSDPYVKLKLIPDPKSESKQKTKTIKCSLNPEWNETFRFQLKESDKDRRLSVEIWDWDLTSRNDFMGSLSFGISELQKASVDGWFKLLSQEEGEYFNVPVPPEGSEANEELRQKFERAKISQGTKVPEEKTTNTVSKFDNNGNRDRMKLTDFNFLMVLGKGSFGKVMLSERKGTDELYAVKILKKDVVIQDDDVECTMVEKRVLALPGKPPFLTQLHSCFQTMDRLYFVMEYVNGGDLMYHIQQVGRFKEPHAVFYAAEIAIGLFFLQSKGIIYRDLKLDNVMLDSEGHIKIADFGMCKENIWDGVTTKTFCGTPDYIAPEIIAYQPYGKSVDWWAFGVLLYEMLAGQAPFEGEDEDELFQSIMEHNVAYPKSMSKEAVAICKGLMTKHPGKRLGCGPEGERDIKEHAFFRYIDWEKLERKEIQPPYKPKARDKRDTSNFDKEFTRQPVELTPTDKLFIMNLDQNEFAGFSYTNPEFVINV

The first assay has as its target T1, PKCα (Homo sapiens, UniProt P17252).
T1 construct: purchased Panvera (Invitrogen GmbH, Karlsruhe, Germany)
Kind of assay: Protein Kinase Cα assay (SPA). The class given is biochemical. As to conditions: human recombinant PKCα, biotinylated PKCα pseudosubstrate, 0.5 mM CaCl2, read-out: IC50, inhibition of PKCα. How it is done:
(§1) The compounds of formula 1 are tested for their activity on different protein kinases and PKC isoforms using a scintillation proximity assay (SPA, Amersham International plc). ^33P-labeled peptides are captured onto streptavidin coated yttrium silicate SPA beads. β-particles, emitted from the captured ^33P-labeled substrate in close proximity to the bead are able to excite the scintillant, resulting in the generation of quantifiable light. The assay is performed in a 96-well polystyrene microtiterplate (1450-514, Isoplates, Wallac, Turku, Finland). The reaction mixture (50 μl) contains 10 μl of the test compound together with 10 μl of the relevant kinase, diluted in the relevant dilution buffer, 5 μl of 10 μM phorbol myristate acetate (PMA) in H2O, 5 μl of 1.6 mM phosphatidylserine (Sigma-Aldrich Chemie GmbH, Stein-heim, Germany) in 20 mM Tris/HCL buffer pH 7.4, 5 μl of 0.3% BSA in H2O, 5 μl of 30 μM relevant substrate and 10 μl of 5 μM ATP and 0.1 μCi of ^33P-ATP (Amersham, Freiburg, Germany) in 200 mM Tris/HCL pH 7.5 and 200 mM MgCl2. Incubation is performed for 40 min at room temperature (RT) without shaking. Reaction is stopped by adding 150 μl of cold stop solution containing 10 mM ATP, 5 mM EGTA pH 7.5, 0.1% Triton X-100 and 0.2 mg streptavidin coated yttrium silicate SPA beads (Amersham, RPNQ 0012). The sealed plate is incubated for 60 min at RT. Thereafter the MTP is counted in a Microbeta Jet (Wallac). IC50 measurement is performed on a routine basis by incubation a serial dilution of inhibitor at concentrations ranging between 0.01 and 100 μM according to the method described above. Background values are the signals of the reaction mixture without addition of the relevant kinase and are subtracted from all values. 100% values are the signals of the reaction mixture without addition of inhibitors.
(§2) Dependent on the efficacy of the inhibitors In the various test systems, corresponding IC50 values are calculated from concentration-inhibition curves by nonlinear regression analysis using the program GraphPad Prism (GraphPad Software Inc., San Diego, Calif.).
Human recombinant PKCα was obtained from Panvera (Invitrogen GmbH, Karlsruhe, Germany) and is used under the assay conditions as described above (Section A.1). The enzyme is diluted in PKC dilution buffer containing 1 mM Hepes pH 7.4, 0.5 mM DTT and 0.001% Triton X-100. The assay additionally contains 0.5 mM CaCl2. The kinase reaction is performed with the biotinylated PKCα pseudosubstrate solved in H2O.
In the case of `O=S(=O)(Nc1ccc(Nc2cc(-c3cccc4ccccc34)ncn2)cc1)c1c(F)cccc1F` [Example 16, 2,6-Difluoro-N-[4-(6-naphthalen-1-yl-pyrimidin-4-ylamino)-phenyl]-benzenesulfonamide], the 50% inhibitory concentration (IC50) was in the range of 1 to 18 µM. On the same count and under the same terms, next, `O=S(=O)(Nc1ccc(Nc2cc(-c3ccc(OCCN4CCOCC4)cc3)ncn2)cc1)c1c(F)cccc1F` [Example 37, 2,6-Difluoro-N-(4-{6-[4-(2-morpholin-4-yl-ethoxy)-phenyl]-pyrimidin-4-ylamino}-phenyl)-benzenesulfonamide]: 1 to 18 µM; `O=S(=O)(Nc1ccc(Nc2cc(-c3ccc4[nH]ccc4c3)ncn2)cc1)c1c(F)cccc1F` [Example 119, 2,6-Difluoro-N-{4-[6-(1H-indol-5-yl)-pyrimidin-4-ylamino]-phenyl}-benzenesulfonamide]: 1 to 18 µM; `O=S(=O)(Nc1ccc(Nc2cc(-c3ccc4[nH]ccc4c3)ncn2)cc1)c1ccccc1F` [Example 120, 2-Fluoro-N-{4-[6-(1H-indol-5-yl)-pyrimidin-4-ylamino]-phenyl}-benzenesulfonamide]: 1 to 18 µM. In the case of `CN1CCN(CCn2ccc3cc(-c4cc(Nc5ccc(NS(=O)(=O)c6ccc(F)cc6F)cc5)ncn4)ccc32)CC1` [Example 150, 2,4-Difluoro-N-[4-(6-{1-[2-(4-methyl-piperazin-1-yl)-ethyl]-1H-indol-5-yl}-pyrimidin-4-ylamino)-phenyl]-benzenesulfonamide formic acid salt], the 50% inhibitory concentration (IC50) lay in the range of 1 to 18 µM.

The next assay addresses T2, PKCβ1 (Homo sapiens, UniProt P05771).
T2 construct: purchased Panvera
Kind of assay: Protein Kinase Cβ1 assay (SPA). The format is biochemical. The settings on record: human recombinant PKCβ1, SPA, biotinylated PKCα pseudosubstrate, 0.5 mM CaCl2; read-out: IC50, inhibition of PKC β1. How it is done:
as §1, §2
Human recombinant PKCβ1 was obtained from Panvera and is used under the assay conditions as described above (Section A.1). The enzyme is diluted in PKC dilution buffer containing 1 mM Hepes pH 7.4, 0.5 mM DTT and 0.001% Triton X-100. The assay additionally contains 0.5 mM CaCl2. The kinase reaction is performed with the biotinylated PKCα pseudosubstrate solved in H2O. The examples 29, 45, 52, 128 and 139 inhibit PKC β1 in this assay with an IC50 between 2 and 40 μM.
Take `COc1ccc(-c2cc(Nc3ccc(NS(=O)(=O)c4ccccc4F)cc3)ncn2)cc1` [Example 29, 2-Fluoro-N-{4-[6-(4-methoxy-phenyl)-pyrimidin-4-ylamino]-phenyl}-benzenesulfonamide]: the 50% inhibitory concentration (IC50) was in the range of 2 to 40 µM. As for `COc1ccc(S(=O)(=O)Nc2ccc(Nc3cc(-c4ccc(OCCCN5CCOCC5)cc4)ncn3)cc2)cc1` [Example 45, 4-Methoxy-N-(4-{6-[4-(3-morpholin-4-yl-propoxy)-phenyl]-pyrimidin-4-ylamino}-phenyl)-benzenesulfonamide], the IC50 fell in the range of 2 to 40 µM. Same read-out and setting: the same measure for `CN(C)CCn1ccc2cc(-c3cc(Nc4ccc(NS(=O)(=O)c5c(F)cccc5F)cc4)ncn3)ccc21` [Example 139, N-(4-{6-[1-(2-Dimethylamino-ethyl)-1H-indol-5-yl]-pyrimidin-4-ylamino}-phenyl)-2,6-difluoro-benzenesulfonamide]: 2 to 40 µM.

The next assay addresses T3, PKCε (Homo sapiens, UniProt Q02156).
T3 construct: purchased Panvera
T3 sequence (Q02156 1-737): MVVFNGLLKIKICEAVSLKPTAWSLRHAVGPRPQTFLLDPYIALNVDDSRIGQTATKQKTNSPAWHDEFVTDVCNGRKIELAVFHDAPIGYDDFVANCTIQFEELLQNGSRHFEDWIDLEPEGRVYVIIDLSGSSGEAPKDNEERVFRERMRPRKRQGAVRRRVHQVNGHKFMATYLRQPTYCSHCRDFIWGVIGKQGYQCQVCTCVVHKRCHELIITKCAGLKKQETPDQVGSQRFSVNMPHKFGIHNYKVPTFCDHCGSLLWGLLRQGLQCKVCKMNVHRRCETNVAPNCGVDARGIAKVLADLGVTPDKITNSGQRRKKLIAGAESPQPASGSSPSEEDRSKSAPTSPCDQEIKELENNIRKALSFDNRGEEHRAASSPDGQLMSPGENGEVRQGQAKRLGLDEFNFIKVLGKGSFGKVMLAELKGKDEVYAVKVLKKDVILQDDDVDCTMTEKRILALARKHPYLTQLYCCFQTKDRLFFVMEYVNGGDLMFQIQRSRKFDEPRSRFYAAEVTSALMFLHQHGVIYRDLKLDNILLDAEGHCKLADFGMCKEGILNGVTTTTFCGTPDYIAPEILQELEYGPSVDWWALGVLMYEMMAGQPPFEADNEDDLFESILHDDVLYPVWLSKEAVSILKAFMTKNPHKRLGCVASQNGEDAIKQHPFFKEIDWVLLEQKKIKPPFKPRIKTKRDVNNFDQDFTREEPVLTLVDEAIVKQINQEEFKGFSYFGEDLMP
Kind of assay: Protein Kinase C ε assay (SPA). The format is biochemical. The settings on record: human recombinant PKCε, PKCη pseudosubstrate, read-out: IC50, inhibition of PKC ε. How it is done:
as §1, §2
Human recombinant PKCε was obtained from Panvera and is used under the assay conditions as described above (Section A.1). The enzyme is diluted in PKC dilution buffer containing 1 mM Hepes pH 7.4, 0.5 mM DTT and 0.001% Triton X-100. The kinase reaction is performed with the biotinylated PKCη pseudosubstrate solved in H2O.
As to `CC(=O)c1ccc(-c2cc(Nc3ccc(NS(=O)(=O)c4c(F)cccc4F)cc3)ncn2)cc1` [Example 27, N-{4-[6-(4-Acetyl-phenyl)-pyrimidin-4-ylamino]-phenyl}-2,6-difluoro-benzenesulfonamide], the IC50 was in the range of 4 to 21 µM. On the same count and under the same terms, next, `O=S(=O)(Nc1ccc(Nc2cc(-c3ccc(OCCCN4CCOCC4)cc3)ncn2)cc1)c1c(F)cccc1F` [Example 38, 2,6-Difluoro-N-(4-{6-[4-(3-morpholin-4-yl-propoxy)-phenyl]-pyrimidin-4-ylamino}-phenyl)-benzenesulfonamide]: 4 to 21 µM; `CN1CCN(CCOc2ccc(-c3cc(Nc4ccc(NS(=O)(=O)c5c(F)cccc5F)cc4)ncn3)cc2)CC1` [Example 47, 2,6-Difluoro-N-[4-(6-{4-[2-(4-methyl-piperazin-1-yl)-ethoxy]-phenyl}-pyrimidin-4-ylamino)-phenyl]-benzenesulfonamide]: 4 to 21 µM.

A further assay deals with T4, PKCη (Homo sapiens, UniProt P24723).
T4 construct: made in house; host or cells: Sf21 insect cells
T4 sequence (P24723 whole entry): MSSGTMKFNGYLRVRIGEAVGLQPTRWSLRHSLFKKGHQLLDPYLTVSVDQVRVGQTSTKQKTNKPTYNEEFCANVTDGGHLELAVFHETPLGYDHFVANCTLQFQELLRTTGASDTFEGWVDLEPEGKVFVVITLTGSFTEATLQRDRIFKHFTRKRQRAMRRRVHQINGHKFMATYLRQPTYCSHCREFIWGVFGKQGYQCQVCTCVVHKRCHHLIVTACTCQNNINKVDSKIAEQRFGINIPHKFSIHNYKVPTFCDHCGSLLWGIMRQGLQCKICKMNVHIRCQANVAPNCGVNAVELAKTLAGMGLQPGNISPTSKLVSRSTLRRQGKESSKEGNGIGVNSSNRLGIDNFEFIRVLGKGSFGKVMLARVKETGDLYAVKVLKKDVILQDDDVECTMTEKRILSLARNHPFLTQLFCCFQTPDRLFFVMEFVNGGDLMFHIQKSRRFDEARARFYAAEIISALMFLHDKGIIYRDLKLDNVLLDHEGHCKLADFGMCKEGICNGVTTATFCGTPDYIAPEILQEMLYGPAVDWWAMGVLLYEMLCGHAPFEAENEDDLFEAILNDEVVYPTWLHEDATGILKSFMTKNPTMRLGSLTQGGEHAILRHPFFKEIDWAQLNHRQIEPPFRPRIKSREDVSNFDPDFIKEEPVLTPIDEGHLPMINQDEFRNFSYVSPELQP
As to the kind of experiment: Protein Kinase C η assay (SPA). The format is biochemical. As to conditions: human recombinant PKCη from Sf21 insect cells, read-out: IC50, inhibition of PKC η. How it is done:
as §1, §2
Human recombinant nickel bead purified PKCη from Sf21 insect cells is used under the assay conditions as described above (Section A.1). The enzyme is diluted in PKC dilution buffer containing 1 mM Hepes pH 7.4, 0.5 mM DTT and 0.001% Triton X-100. The kinase reaction is performed with the biotinylated PKCη pseudosubstrate solved in H2O. The examples 52, 55, 118 and 135 inhibit PKC η in this assay with an IC50 between 6 and 50 μM.
For `Cc1ccc(S(=O)(=O)Nc2ccc(Nc3cc(-c4ccc(OCCCN5CCN(C)CC5)cc4)ncn3)cc2)cc1` [Example 55, 4-Methyl-N-[4-(6-{4-[3-(4-methyl-piperazin-1-yl)-propoxy]-phenyl}-pyrimidin-4-ylamino)-phenyl]-benzenesulfonamide], the IC50 lay within 6 to 50 µM. Same read-out and setting: next, `Cc1ccc(S(=O)(=O)Nc2ccc(Nc3cc(-c4ccc5c(ccn5CCCN(C)C)c4)ncn3)cc2)cc1` [Example 135, N-(4-{6-[1-(3-Dimethylamino-propyl)-1H-indol-5-yl]-pyrimidin-4-ylamino}-phenyl)-4-methyl-benzenesulfonamide]: 6 to 50 µM.

The next assay addresses T5, PKCθ (Homo sapiens, UniProt Q04759).
T5 construct: made in house; host or cells: Sf21 insect cells
Kind of assay: Protein Kinase C θ assay (SPA). The format is biochemical. The settings on record: human recombinant PKCθ from Sf21 insect cells, read-out: IC50, inhibition of PKC θ. Here is the method:
as §1, §2
Human recombinant nickel bead purified PKCθ from Sf21 insect cells is used under the assay conditions as described above (Section A.1). The enzyme is diluted in PKC dilution buffer containing 1 mM Hepes pH 7.4, 0.5 mM DTT and 0.001% Triton X-100. The kinase reaction is performed with the biotinylated PKCθ pseudosubstrate solved in H2O. The examples 8, 22, 46, 115, 118 and 161 inhibit PKC 9 in this assay with an IC50<1 μM.
In the case of `O=S(=O)(Nc1ccc(Nc2cc(-c3ccccc3)ncn2)cc1)c1c(F)cccc1F` [Example 8, 2,6-Difluoro-N-[4-(6-phenyl-pyrimidin-4-ylamino)-phenyl]-benzenesulfonamide], the IC50 is under 1 µM. Turning to `COc1ccc(S(=O)(=O)Nc2ccc(Nc3cc(-c4cccc(OCCCN5CCOCC5)c4)ncn3)cc2)cc1` [Example 46, 4-Methoxy-N-(4-{6-[3-(3-morpholin-4-yl-propoxy)-phenyl]-pyrimidin-4-ylamino}-phenyl)-benzenesulfonamide], the IC50 was under 1 µM. On the same count and under the same terms, the same measure for `CC1Cc2cc(-c3cc(Nc4ccc(NS(=O)(=O)c5c(F)cccc5F)cc4)ncn3)ccc2O1` (centres unmarked) [Example 115, 2,6-Difluoro-N-{4-[6-(2-methyl-2,3-dihydro-benzofuran-5-yl)-pyrimidin-4-ylamino]-phenyl}-benzenesulfonamide]: under 1 µM. Take `O=S(=O)(Nc1ccc(Nc2cc(-c3ccc4c(ccn4CCN4CCCC4)c3)ncn2)cc1)c1ccc(F)c(Cl)c1` [Example 161, 3-Chloro-4-fluoro-N-(4-{6-[1-(2-pyrrolidin-1-yl-ethyl)-1H-indol-5-yl]pyrimidin-4-ylamino}-phenyl)-benzenesulfonamide formic acid salt]: the IC50 is under 1 µM.
